US8084461B2 (Dey, L.P., priority 2001, dated 2011)
Where a name gives a salt, the structure may show the parent alone.

Experiments:
patients with COPD [1] = assay: Double-blind, randomized, positive control trial: FEV1 response (efficacy); assay type: in vivo, human; conditions: Crossover phase, nebulized 4 times per day
Procedure: (§1) To evaluate the efficacy and safety of the inhalation solution of the present invention, a double-blind, randomized, positive control trial was performed.
(§2) All study medications were administered 4 times per day (ideally every 6 hours) by inhalation using a PARI LC PLUS™ nebulizer and PARI PRONEB® compressor. Concomitant use of bronchodilators was restricted during the trial. Oral and inhaled steroic use was permitted throughout the trial, provided that dosing remained constant.

patients with COPD [2] = assay: Double-blind, randomized, positive control trial: treatment-emergent adverse events (safety/tolerability); conditions: percent of patients; for (%) Patients with A (adverse events): any adverse event
Procedure: as §1, §2

| Structure (SMILES) | Peak FEV1 mean (change from pre-dose to peak FEV1 within 3 hours after dosing) (patients with COPD [1]; Combination vs. Ipratropium comparison) [L] | Bronchitis (RESPIRATORY), % (patients with COPD [2]) | Cramps leg (MUSCULO-SKELETAL), % (patients with COPD [2]) | Diarrhea (DIGESTIVE), % (patients with COPD [2]) | Dyspepsia (DIGESTIVE), % (patients with COPD [2]) | Infection urinary tract (UROGENITAL), % (patients with COPD [2]) | Lung Disease (RESPIRATORY), % (patients with COPD [2]) | Nausea (DIGESTIVE), % (patients with COPD [2]) | Pain (BODY AS A WHOLE), % (patients with COPD [2]) | Pain chest (BODY AS A WHOLE), % (patients with COPD [2]) | Pharyngitis (RESPIRATORY), % (patients with COPD [2]) | Pneumonia (RESPIRATORY), % (patients with COPD [2]) | (%) Patients with A (adverse events) (patients with COPD [2]) | Peak FEV1 mean (change from pre-dose to peak FEV1 within 3 hours after dosing) (patients with COPD [1]; Combination vs. Albuterol comparison) [L] |
| --- | --- | --- | --- | --- | --- | --- | --- | --- | --- | --- | --- | --- | --- | --- |
| CC(C)[N+]1(C)C2CCC1CC(OC(=O)C(CO)c1ccccc1)C2 (racemic) [Ipratropium, 8-azoniabicyclo [3.2.1]-octane, 3-(3, hydroxyl-1-oxo-2-phenylpropoxy)-8methyl-8-(1-methylethyl)-bromide, monohydrate, (endo, syn)-, (±)-] | 0.282 | (1.7) % | (0.8) % | (1.2) % | (1.1) % | (1.2) % | (4.5) % | (0.8) % | (0.5) % | (1.9) % | (3.6) % | (1.1) % | (43.6) % | – |
| CC(C)(C)NCC(O)c1ccc(O)c(CO)c1 (stereo not drawn) [Albuterol, α^1-[(tert-butylamino)methyl]-4-hydroxy-m-xylene-α,α′-diol sulfate (2:1)(salt)] | – | (1.4) % | (1.1) % | (0.7) % | (0.9) % | (0.4) % | (4.7) % | (0.9) % | (1.1) % | (1.4) % | (3.5) % | (0.9) % | (43.0) % | 0.313 |
